PubChem BioAssay AID1259407 (Chemical Carcinogenesis Research Information System (CCRIS), 2018)
Active and inactive are the calls of the source. The rule behind the calls is not given here.

System: CCRIS mutagenicity, Ames/micronucleus/aberration tests
Test: CCRIS mutagenicity studies
Settings: Method: PREINCUBATION

Measured: mutagenic call

Cc1ccc(Cl)cc1
inactive: Test System: AMES SALMONELLA TYPHIMURIUM, Strain/Indicator: TA97, Metabolic Activation: HAMSTER, LIVER, S-9, AROCLOR 1254 (10%) inactive; negative | Test System: AMES SALMONELLA TYPHIMURIUM, Strain/Indicator: TA97, Metabolic Activation: HAMSTER, LIVER, S-9, AROCLOR 1254 (30%) inactive; negative | Test System: AMES SALMONELLA TYPHIMURIUM, Strain/Indicator: TA97, Metabolic Activation: NONE inactive; negative | Test System: AMES SALMONELLA TYPHIMURIUM, Strain/Indicator: TA97, Metabolic Activation: RAT, LIVER, S-9, AROCLOR 1254 (10%) inactive; negative | Test System: AMES SALMONELLA TYPHIMURIUM, Strain/Indicator: TA97, Metabolic Activation: RAT, LIVER, S-9, AROCLOR 1254 (30%) inactive; negative | Test System: AMES SALMONELLA TYPHIMURIUM, Strain/Indicator: TA98, Metabolic Activation: HAMSTER, LIVER, S-9, AROCLOR 1254 (10%) inactive; negative | Test System: AMES SALMONELLA TYPHIMURIUM, Strain/Indicator: TA98, Metabolic Activation: HAMSTER, LIVER, S-9, AROCLOR 1254 (30%) inactive; negative | Test System: AMES SALMONELLA TYPHIMURIUM, Strain/Indicator: TA98, Metabolic Activation: NONE inactive; negative | Test System: AMES SALMONELLA TYPHIMURIUM, Strain/Indicator: TA98, Metabolic Activation: RAT LIVER S-9, PHENOBARBITAL AND BETA-NAPHTHOFLAVONE inactive; negative | Test System: AMES SALMONELLA TYPHIMURIUM, Strain/Indicator: TA98, Metabolic Activation: RAT, LIVER, S-9, AROCLOR 1254 (10%) inactive; negative | Test System: AMES SALMONELLA TYPHIMURIUM, Strain/Indicator: TA98, Metabolic Activation: RAT, LIVER, S-9, AROCLOR 1254 (30%) inactive; negative | Test System: AMES SALMONELLA TYPHIMURIUM, Strain/Indicator: TA100, Metabolic Activation: HAMSTER, LIVER, S-9, AROCLOR 1254 (10%) inactive; negative | Test System: AMES SALMONELLA TYPHIMURIUM, Strain/Indicator: TA100, Metabolic Activation: HAMSTER, LIVER, S-9, AROCLOR 1254 (30%) inactive; negative | Test System: AMES SALMONELLA TYPHIMURIUM, Strain/Indicator: TA100, Metabolic Activation: NONE inactive; negative | Test System: AMES SALMONELLA TYPHIMURIUM, Strain/Indicator: TA100, Metabolic Activation: RAT LIVER S-9, PHENOBARBITAL AND BETA-NAPHTHOFLAVONE inactive; negative | Test System: AMES SALMONELLA TYPHIMURIUM, Strain/Indicator: TA100, Metabolic Activation: RAT, LIVER, S-9, AROCLOR 1254 (10%) inactive; negative | Test System: AMES SALMONELLA TYPHIMURIUM, Strain/Indicator: TA100, Metabolic Activation: RAT, LIVER, S-9, AROCLOR 1254 (30%) inactive; negative | Test System: AMES SALMONELLA TYPHIMURIUM, Strain/Indicator: TA102, Metabolic Activation: NONE inactive; negative | Test System: AMES SALMONELLA TYPHIMURIUM, Strain/Indicator: TA102, Metabolic Activation: RAT LIVER S-9, PHENOBARBITAL AND BETA-NAPHTHOFLAVONE inactive; negative | Test System: AMES SALMONELLA TYPHIMURIUM, Strain/Indicator: TA104, Metabolic Activation: NONE inactive; negative | Test System: AMES SALMONELLA TYPHIMURIUM, Strain/Indicator: TA104, Metabolic Activation: RAT LIVER S-9, PHENOBARBITAL AND BETA-NAPHTHOFLAVONE inactive; negative | Test System: AMES SALMONELLA TYPHIMURIUM, Strain/Indicator: TA1535, Metabolic Activation: HAMSTER, LIVER, S-9, AROCLOR 1254 (10%) inactive; negative | Test System: AMES SALMONELLA TYPHIMURIUM, Strain/Indicator: TA1535, Metabolic Activation: HAMSTER, LIVER, S-9, AROCLOR 1254 (30%) inactive; negative | Test System: AMES SALMONELLA TYPHIMURIUM, Strain/Indicator: TA1535, Metabolic Activation: NONE inactive; negative | Test System: AMES SALMONELLA TYPHIMURIUM, Strain/Indicator: TA1535, Metabolic Activation: RAT LIVER S-9, PHENOBARBITAL AND BETA-NAPHTHOFLAVONE inactive; negative | Test System: AMES SALMONELLA TYPHIMURIUM, Strain/Indicator: TA1535, Metabolic Activation: RAT, LIVER, S-9, AROCLOR 1254 (10%) inactive; negative | Test System: AMES SALMONELLA TYPHIMURIUM, Strain/Indicator: TA1535, Metabolic Activation: RAT, LIVER, S-9, AROCLOR 1254 (30%) inactive; negative | Test System: AMES SALMONELLA TYPHIMURIUM, Strain/Indicator: TA1537, Metabolic Activation: HAMSTER, LIVER, S-9, AROCLOR 1254 (30%) inactive; negative | Test System: AMES SALMONELLA TYPHIMURIUM, Strain/Indicator: TA1537, Metabolic Activation: NONE inactive; negative | Test System: AMES SALMONELLA TYPHIMURIUM, Strain/Indicator: TA1537, Metabolic Activation: RAT LIVER S-9, PHENOBARBITAL AND BETA-NAPHTHOFLAVONE inactive; negative | Test System: AMES SALMONELLA TYPHIMURIUM, Strain/Indicator: TA1537, Metabolic Activation: RAT, LIVER, S-9, AROCLOR 1254 (30%) inactive; negative | Test System: E.COLI, Strain/Indicator: WP2UVRA/PKM101, Metabolic Activation: NONE inactive; negative | Test System: E.COLI, Strain/Indicator: WP2UVRA/PKM101, Metabolic Activation: RAT LIVER S-9, PHENOBARBITAL AND BETA-NAPHTHOFLAVONE inactive; negative | Test System: E.COLI, Strain/Indicator: WP2UVRA, Metabolic Activation: NONE inactive; negative | Test System: E.COLI, Strain/Indicator: WP2UVRA, Metabolic Activation: RAT LIVER S-9, PHENOBARBITAL AND BETA-NAPHTHOFLAVONE inactive; negative
